According to patent US12054509B2, “Antimicrobial compounds, compositions, and uses thereof” (Lakewood Amedex, Inc., priority 2017, dated 2024):
Read-outs that look alike come from different tables or passages of the source.

Legend:
Assay in all cases: MIC against a single isolate (Example 26)
Assay type in all cases: cell-based
Candida Albicans = conditions: read-out: C. albicans MIC
Procedure: (§1) Bacterial strains evaluated in this study include Escherichia coli, Klebsiella spp, Serratia marcescens, Proteus mirabilis/vulgaris, Citrobacter spp, Providencia spp, Morganella morganii, Pseudomonas aeruginosa, Staphylococcus aureus (MRSA only), and Enterococcus faecalis. Nu-8 test solutions are adjusted to pH 3.5 with citric acid, and MIC is evaluated per the CLSI methods in Mueller-Hinton broth supplemented accordingly to facilitate growth of specific strains.
(§2) MIC was determined as per Example 9 using LAI-101, LAI-102, Nu-10, LAI-105, LAI-106, Nu-3, and Nu-8 against a single isolate of Escherichia coli. Pseudomonas aeruginosa, Staphylococcus aureus (MRSA only), and Candida Albicans. For all microbe species, the LAI-101, LAI-102, Nu-10, LAI-105, and LAI-106 all perform at least as well as, and in many experiments better than, Nu-8 and Nu-3, which are both already quite active compounds.

Escherichia coli = conditions: read-out: E. coli MIC
Procedure: as §1, §2

Pseudomonas aeruginosa = conditions: read-out: P. aeruginosa MIC
Procedure: as §1, §2

[1] = tested on: Staphylococcus aureus (MRSA only); conditions: read-out: S. aureus MIC
Procedure: as §1, §2

Row | SMILES | MIC (Candida Albicans) [µg/mL] | MIC (Escherichia coli) [µg/mL] | MIC (Pseudomonas aeruginosa) [µg/mL] | MIC [1] [µg/mL] | MIC (Candida Albicans; single isolate) [µg/mL] | MIC (Escherichia coli; single isolate) [µg/mL] | MIC (Pseudomonas aeruginosa; single isolate) [µg/mL] | MIC ([1]; single isolate) [µg/mL]
1 | CC(C)COP(=O)(O)OC[C@H]1O[C@@H](n2ccc(N)nc2=O)C[C@@H]1OP(=O)(O)OCC(C)C [LAI-101, ((2R,3S,5R)-5-(4-amino-2-oxopyrimidin-1(2H)-yl)-3-((hydroxy(isobutoxy)phosphoryl)-oxy)tetrahydrofuran-2-yl)methyl isobutyl hydrogen phosphate] | 50000 | 5000 | 5000 | 5000 | – | – | – | –
2 | Nc1ccn([C@H]2C[C@H](OP(=O)(O)OCc3ccccc3)[C@@H](COP(=O)(O)OCc3ccccc3)O2)c(=O)n1 [LAI-102, ((2R,3S,5R)-5-(4-amino-2-oxopyrimidin-1(2H)-yl)-3-(((benzyloxy)(hydroxy)-phosphoryl)oxy)tetrahydrofuran-2-yl)methyl benzyl hydrogen phosphate] | 50000 | 5000 | 25000 | 25000 | – | – | – | –
3 | Nc1ncnc2c1ncn2[C@H]1C[C@H](OP(=O)(O)OC2CCCCC2)[C@@H](COP(=O)(O)OC2CCCCC2)O1 [LAI-105, ((2R,3S,5R)-5-(6-amino-9H-purin-9-yl)-3-(((cyclohexyloxy)(hydroxy)phosphoryl)oxy)tetrahydrofuran-2-yl)methyl cyclohexyl hydrogen phosphate] | – | – | – | – | > 5000 | > 5000 | 5000 | > 5000
